{"source": "patent US12076329B2", "about": "“Compositions and methods for enhancing visual function” (The Regents of the University of California, priority 2020, dated 2024)", "molecules": {"B1": {"name": "medium wave cone opsin: medium wave (MW) cone opsin expressed in RGCs of rd1 mice, comparator light-activated GPCR (protein, UniProt O35599 1-359, looked up)", "Medium-wave-sensitive opsin 1": "MAQRLTGEQTLDHYEDSTHASIFTYTNSNSTKGPFEGPNYHIAPRWVYHLTSTWMILVVVASVFTNGLVLAATMRFKKLRHPLNWILVNLAVADLAETIIASTISVVNQIYGYFVLGHPLCVIEGYIVSLCGITGLWSLAIISWERWLVVCKPFGNVRFDAKLATVGIVFSWVWAAIWTAPPIFGWSRYWPYGLKTSCGPDVFSGTSYPGVQSYMMVLMVTCCIFPLSIIVLCYLQVWLAIRAVAKQQKESESTQKAEKEVTRMVVVMVFAYCLCWGPYTFFACFATAHPGYAFHPLVASLPSYFAKSATIYNPIIYVFMNRQFRNCILHLFGKKVDDSSELSSTSKTEVSSVSSVSPA"}}, "key": {"Halo-mGluR2": {"biological_target": "T1, Halo-mGluR2 (Rattus norvegicus, UniProt P31421)", "T1 construct": "expressed in transfected cells; host or cells: HEK 293T", "T1 sequence (P31421 with tags, fused parts or gaps)": "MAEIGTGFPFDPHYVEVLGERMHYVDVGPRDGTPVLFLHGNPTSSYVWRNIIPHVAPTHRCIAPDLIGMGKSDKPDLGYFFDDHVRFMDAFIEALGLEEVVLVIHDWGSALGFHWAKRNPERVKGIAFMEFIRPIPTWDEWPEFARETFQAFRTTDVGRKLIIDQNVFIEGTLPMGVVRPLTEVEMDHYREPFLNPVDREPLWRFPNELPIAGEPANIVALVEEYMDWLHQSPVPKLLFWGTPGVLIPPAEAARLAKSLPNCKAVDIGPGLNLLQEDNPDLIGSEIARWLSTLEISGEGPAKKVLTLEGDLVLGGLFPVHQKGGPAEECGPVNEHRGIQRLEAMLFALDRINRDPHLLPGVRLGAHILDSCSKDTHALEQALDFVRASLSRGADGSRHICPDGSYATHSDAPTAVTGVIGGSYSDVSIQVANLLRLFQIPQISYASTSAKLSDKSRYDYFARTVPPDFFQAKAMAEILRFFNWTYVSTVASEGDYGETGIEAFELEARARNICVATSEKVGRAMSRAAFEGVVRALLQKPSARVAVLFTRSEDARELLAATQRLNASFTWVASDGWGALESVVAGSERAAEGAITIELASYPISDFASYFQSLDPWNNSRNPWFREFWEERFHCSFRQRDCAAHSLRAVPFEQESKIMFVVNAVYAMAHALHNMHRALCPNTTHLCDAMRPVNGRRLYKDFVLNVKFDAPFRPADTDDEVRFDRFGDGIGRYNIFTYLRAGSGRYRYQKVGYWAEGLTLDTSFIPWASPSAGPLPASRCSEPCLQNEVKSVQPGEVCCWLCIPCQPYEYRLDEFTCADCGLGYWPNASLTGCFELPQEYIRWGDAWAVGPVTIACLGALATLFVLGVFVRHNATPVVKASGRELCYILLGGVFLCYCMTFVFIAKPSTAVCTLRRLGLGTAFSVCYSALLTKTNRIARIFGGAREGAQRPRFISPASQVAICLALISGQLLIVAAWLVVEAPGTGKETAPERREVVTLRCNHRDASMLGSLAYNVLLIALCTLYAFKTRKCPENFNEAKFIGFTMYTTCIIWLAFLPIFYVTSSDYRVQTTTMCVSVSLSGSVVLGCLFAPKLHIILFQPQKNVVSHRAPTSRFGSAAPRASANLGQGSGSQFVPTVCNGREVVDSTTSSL", "assay": "Photoactivation and labeling of Halo-mGluR2, whole cell patch clamp in HEK 293T cells", "type": "cell-based", "protocol": "(§1) Whole cell patch clamp recordings from HEK 293T cells were performed 24-48 hours after transfection as previously described (Farrants et al., 2018). Briefly, voltage clamp recordings at −60 mV were performed in a high potassium (120 mM) solution to enable large inward currents upon receptor activation.\n(§2) Unless otherwise noted, cells were incubated with 1-10 μM of PORTL for 45-60 min at 37° C. in the appropriate extracellular recording solution. Labeling efficiency was determined as previously described (Levitz et al., 2017). Illumination was applied to the entire field of view using a CoolLED pE-4000 through a 40× objective. Light intensity in the sample plane was 1-2 mW/mm^2. pClamp software was used for both data acquisition and control of illumination. All drugs were purchased from Tocris and applied using a gravity-driven perfusion system.\nWith the goal of further expanding the repertoire of PORTLs to a third self-labelling, orthogonal suicide enzyme, the Halo-tag, which reacts specifically with alkyl chlorides (Los et al., 2008), was used. […] Based on the hypothesis that branching Halo-targeting PORTLs would enhance photoswitching, “doubleClAG12” (^2×ClAG12) (Scheme S8 (FIG. 1H); FIG. 2E) was synthesized. […]"}, "SNAP-mGluR2": {"biological_target": "T2, SNAP-mGluR2 (Rattus norvegicus, UniProt P31421)", "T2 construct": "expressed in transfected cells; host or cells: HEK293 / HEK 293T, with co-expressed GIRK channel", "T2 sequence (P31421 with tags, fused parts or gaps)": "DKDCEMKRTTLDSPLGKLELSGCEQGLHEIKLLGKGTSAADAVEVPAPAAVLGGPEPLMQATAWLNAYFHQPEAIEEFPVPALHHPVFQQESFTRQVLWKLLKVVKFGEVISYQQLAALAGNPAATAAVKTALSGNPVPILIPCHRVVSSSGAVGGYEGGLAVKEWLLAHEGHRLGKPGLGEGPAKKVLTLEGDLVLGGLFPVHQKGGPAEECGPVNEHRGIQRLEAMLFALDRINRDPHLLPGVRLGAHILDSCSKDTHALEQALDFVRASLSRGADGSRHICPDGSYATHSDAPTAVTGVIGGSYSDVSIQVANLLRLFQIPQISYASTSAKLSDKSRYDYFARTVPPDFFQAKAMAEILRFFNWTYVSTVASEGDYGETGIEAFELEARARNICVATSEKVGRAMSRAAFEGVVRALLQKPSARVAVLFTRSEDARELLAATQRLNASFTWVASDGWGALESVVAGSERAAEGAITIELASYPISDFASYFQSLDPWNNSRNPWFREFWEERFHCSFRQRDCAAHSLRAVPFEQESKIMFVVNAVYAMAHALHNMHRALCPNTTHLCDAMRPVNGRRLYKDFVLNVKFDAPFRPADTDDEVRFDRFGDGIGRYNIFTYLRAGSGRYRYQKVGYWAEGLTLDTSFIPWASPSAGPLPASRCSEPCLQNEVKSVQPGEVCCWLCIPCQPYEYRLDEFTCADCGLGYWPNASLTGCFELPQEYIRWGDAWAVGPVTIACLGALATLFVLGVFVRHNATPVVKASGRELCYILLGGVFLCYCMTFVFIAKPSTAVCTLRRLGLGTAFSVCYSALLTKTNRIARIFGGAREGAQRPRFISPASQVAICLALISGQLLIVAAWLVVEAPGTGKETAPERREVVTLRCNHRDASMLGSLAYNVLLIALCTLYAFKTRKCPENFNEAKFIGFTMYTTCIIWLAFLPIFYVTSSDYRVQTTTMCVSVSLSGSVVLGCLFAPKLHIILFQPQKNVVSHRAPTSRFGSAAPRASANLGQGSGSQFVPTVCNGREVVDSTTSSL", "assay": "Photoactivation of SNAP-mGluR2 read out as GIRK current, whole cell patch clamp in HEK293 cells", "type": "cell-based", "conditions": "specificity: applied to cells expressing SNAP-mGluR2, n=3 cells", "protocol": "as §1, §2\nFIG. 3A-3C. Monovalent BGAG12,460 elicits rat SNAP-mGluR2 and human SNAP-mGluR6 GIRK photo-current in HEK293 cells. FIG. 3A. Group II and III mGluRs, like mGluR2 and 6, respectively, couple to GIRK channels in neurons and this system reconstitutes in non-neuronal cell lines, so that SNAP-mGluR2 or 6 coupled to a BGAG photoswitch will be activated by light and induce hyperpolarizing GIRK current. FIG. 3B. Blue (460 nm) light photo-activates BGAG12,460:SNAP-mGluR2 and elicits an inward K+ current from co-expressed GIRK channel in a HEK293 cell voltage clamped at −60 mV with [K+]in=[K+]out=150 mM. FIG. 3C.\nFIG. 4A-4D. Multibranched BGAG12,460 increases potency and sensitivity of SNAP-mGluR2 activation of GIRK channels in HEK293 cells. FIG. 4A. ^4×BGAG12,460 consists of a single BG end for 1:1 attachment to SNAP on each subunit of the mGluR and 4 branches of a 12-PEG linker, with each branch bearing a photoswitchable azobenzene-glutamate (AG). FIG. 4B. […] Dependence of SNAP-mGluR2 photo-activation efficiency, read out as GIRK current, with single, 2-branch and 4-branch BGAG12,460. […]"}, "CLIP-mGluR2": {"biological_target": "T3, CLIP-mGluR2 (Rattus norvegicus, UniProt P31421)", "T3 construct": "expressed in transfected cells; host or cells: HEK 293T", "T3 sequence (P31421 with tags, fused parts or gaps)": "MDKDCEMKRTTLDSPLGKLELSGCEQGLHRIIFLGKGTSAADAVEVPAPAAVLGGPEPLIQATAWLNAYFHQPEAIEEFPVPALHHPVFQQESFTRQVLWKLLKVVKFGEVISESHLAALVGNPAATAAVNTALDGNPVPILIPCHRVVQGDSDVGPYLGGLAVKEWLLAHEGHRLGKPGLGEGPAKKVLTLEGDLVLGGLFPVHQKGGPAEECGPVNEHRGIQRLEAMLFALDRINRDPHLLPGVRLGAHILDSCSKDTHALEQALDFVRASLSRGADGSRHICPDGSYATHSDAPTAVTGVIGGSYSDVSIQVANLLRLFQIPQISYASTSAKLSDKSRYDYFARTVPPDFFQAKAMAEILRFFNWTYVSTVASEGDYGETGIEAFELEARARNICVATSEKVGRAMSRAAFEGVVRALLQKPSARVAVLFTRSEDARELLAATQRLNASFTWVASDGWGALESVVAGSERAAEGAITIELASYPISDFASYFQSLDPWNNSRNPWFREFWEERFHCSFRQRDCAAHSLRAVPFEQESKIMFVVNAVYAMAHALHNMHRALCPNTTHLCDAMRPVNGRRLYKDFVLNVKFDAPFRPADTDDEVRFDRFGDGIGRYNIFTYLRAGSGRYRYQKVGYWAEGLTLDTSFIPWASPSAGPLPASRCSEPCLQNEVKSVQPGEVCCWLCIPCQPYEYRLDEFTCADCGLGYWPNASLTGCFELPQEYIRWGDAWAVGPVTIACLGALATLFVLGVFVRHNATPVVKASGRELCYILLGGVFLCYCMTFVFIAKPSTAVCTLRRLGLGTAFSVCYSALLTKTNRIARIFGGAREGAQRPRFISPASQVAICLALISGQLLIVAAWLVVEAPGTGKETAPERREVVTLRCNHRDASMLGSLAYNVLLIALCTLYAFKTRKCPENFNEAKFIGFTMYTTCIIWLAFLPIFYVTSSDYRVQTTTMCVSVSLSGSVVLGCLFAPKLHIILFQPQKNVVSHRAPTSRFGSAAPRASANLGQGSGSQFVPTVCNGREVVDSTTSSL", "assay": "Photoactivation of CLIP-mGluR2, whole cell patch clamp in HEK 293T cells", "type": "cell-based", "protocol": "as §1, §2"}, "GFP-tagged mGluR2": {"test_system": "GFP-tagged mGluR2", "assay": "Nanobody-photoswitch conjugate (NPC)-mediated photoswitching of GFP-tagged mGluR2", "type": "cell-based", "conditions": "SNAP-tagged anti-GFP nanobody labeled with PORTL", "text": "Finally, a long-term goal of tethered photopharmacology is to incorporate the optical control afforded by such compounds into antibody-mediated targeting of proteins. “Nanobody-photoswitch conjugates” (NPCs) consisting of a SNAP-tagged nanobody labeled with a PORTL have been reported. NPCs containing an anti-GFP nanobody are able to photoactivate GFP-tagged mGluR2, but with limited efficiency (Farrants et al., 2018)."}, "[1]": {"test_system": "rd1 animals expressing medium wave cone opsin in RGCs", "assay": "Line pattern recognition in moving displays, medium wave cone opsin in RGCs", "type": "in vivo, mouse", "conditions": "expressed in RGCs of rd1 animals", "text": "The kinetics of onset, decay and recovery of the restored light response are expected to affect the ability to recognize a visual pattern. […] Thus, the speed limit of ^4×BGAG12,460:SNAP-mGluR2 in RGCs is ≥8 cm/s, whereas that of medium wave cone opsin in RGCs is ≤4 cm/s."}, "[2]": {"test_system": "RGCs from isolated rd1 retina", "assay": "MEA recordings of RGCs from isolated rd1 retina", "type": "cell-based, mouse", "conditions": "1 s light flashes", "text": "FIG. 10A-10C. MEA recordings of RGCs from isolated rd1 retina with either BGAG12,460:SNAP-mGluR2 or medium wave cone opsin in RGCs. A) Superimposed average responses to 1 s light flashes in dozens of RGCs in 3 representative retinas isolated from: wildtype mice (Wt; red), rd1 mice expressing medium wave (MW) cone opsin in RGCs (black), and rd1 mice expressing SNAP-mGluR2 in RGCs (blue) following intravitreal injection of BGAG12,460. […] B) Blue light activation of BGAG12,460:SNAP-mGluR2 evokes an immediate inhibition with a sustained amplitude during illumination, followed by a transient excitatory rebound after termination of illumination. […] As light pulses are shortened, the delay to peak response increases and deactivation slows, (from (Berry et al. (2019) supra)."}, "[3]": {"test_system": "rd1 animals expressing medium wave cone opsin in RGCs", "conditions": "Berry et al. (2019); cited from earlier work"}}, "note": "Entries after “also recorded” stand apart in the source; their conditions may differ.", "data": [{"molecule": "N[C@@H](C[C@H](CCCC(=O)Nc1ccc(/N=N/c2ccc(NC(=O)CNC(=O)CCOCCOCCOCCOCCOCCOCCOCCOCCOCCOCCOCCOCCNC(=O)CCCC(=O)NCCOCCOCCCCCCCl)cc2)cc1)C(=O)O)C(=O)O", "note": "[ClAG12, (2S,4S)-2-Amino-4-(4-((4-((E)-(4-(61-chloro-4,44,48-trioxo-7,10,13,16,19,22,25,28,31,34,37,40,52,55-tetradecaoxa-3,43,49-triazahenhexacontanamido)phenyl)diazenyl)phenyl)amino)-4-oxobutyl)pentanedioic acid]", "values": [{"measurement": "photoactivation of Halo-mGluR2", "setting": "Halo-mGluR2", "result": "showed photoactivation of mGluR2"}]}, {"molecule": "Nc1ccnc(OCc2ccc(CNC(=O)CCC(=O)N3Cc4ccccc4-c4nnn(CCOCCOCCOCCOCCOCCOCCOCCOCCOCCOCCOCCOCCC(=O)N[C@H](CCC(=O)NCC(=O)Nc5ccc(/N=N/c6ccc(NC(=O)CCC[C@@H](C[C@H](N)C(=O)O)C(=O)O)cc6)cc5)C(=O)NCC(=O)Nc5ccc(/N=N/c6ccc(NC(=O)CCC[C@@H](C[C@H](N)C(=O)O)C(=O)O)cc6)cc5)c4-c4ccccc43)cc2)n1", "note": "[^2×BCAG12]", "values": [{"measurement": "photocurrent relative to 1 mM glutamate", "setting": "SNAP-mGluR2", "result": "2.8±0.3", "unit": "%"}, {"measurement": "optical control / efficiency of photoactivation of CLIP-mGluR2", "setting": "CLIP-mGluR2", "result": "near-complete optical control; also recorded: enhances efficiency of CLIP-mGluR2 photoactivation compared to BCAG12"}]}, {"molecule": "Nc1nc(OCc2ccc(CNC(=O)CCCC(=O)NCCOCCOCCOCCOCCOCCOCCOCCOCCOCCOCCOCCOCCC(=O)N[C@H](CCC(=O)NCC(=O)Nc3ccc(/N=N/c4ccc(NC(=O)CCC[C@@H](C[C@H](N)C(=O)O)C(=O)O)cc4)cc3)C(=O)NCC(=O)Nc3ccc(/N=N/c4ccc(NC(=O)CCC[C@@H](C[C@H](N)C(=O)O)C(=O)O)cc4)cc3)cc2)c2nc[nH]c2n1", "note": "[^2×BGAG12]", "values": [{"measurement": "photoswitch efficiency of NPC-mediated photoswitching of mGluR2", "setting": "GFP-tagged mGluR2", "result": "doubled the photoswitch efficiency"}]}, {"molecule": "B1", "values": [{"measurement": "line pattern recognition when the display moved at 4 cm/s", "setting": "[1]", "result": "performed at the level of the untreated rd1 animals"}, {"measurement": "speed limit of line pattern recognition in moving displays", "setting": "[1]", "result": "≤ 4", "unit": "cm/s"}, {"measurement": "latency of RGC response to light onset", "setting": "[2]", "result": "delayed response"}, {"measurement": "line pattern recognition when the displays move at 1 cm/s", "setting": "[3]", "result": "perform well"}]}]}
